Test results taken from patent US20070259866A1, “Method of Adenovirus, HIV and HPV Prophylaxis” (priority 1999, published 2007).

How the values were obtained:
[1] = test system: NL-HX-ADA (molecularly cloned macrophage-tropic type of HIV-1); test: Extended dose response for inactivation of HIV-1 by CTC96, fluorescent focus assay in PBMCs; format: cell-based; details: 1 hour
Method: • Stock virus: NL-HX-ADA ˜5.5 μg/ml p24 (This is a molecularly cloned macrophage-tropic type of HIV-1). Virus was used to infect cells at 1:4,000 final dilution (˜1.4 ng/ml p24). Stock CTC-96: 10 mg/ml prepared directly in RPMI 1640 Method: Concentrated stock solution of virus was treated for 1 hour with equal volume of medium containing the drug at the indicated concentrations (1:2 dilution). The virus/drug mixture was then diluted 1,000-fold (1:2,000 dilution) and then added to an equal volume of PHA-activated humans PBMCs (1:4,000 final dilution) to allow virus replication to occur. The extent of infection was measured after 4 days by a fluorescent focus assay and compared to that of a control culture not containing any drug.

[2] = test system: NL-HX-ADA (macrophage-tropic isolate) Virus; test: Inactivation of HIV stock by 1 hr drug treatment, then PBMC infection, fluorescent focus assay (NL-HX-ADA); format: cell-based, Human Immunodeficiency Virus (HIV); details: for Average # infected cells/area / # infected cells/area (~500 cells): 4 days; for # infected cells/area (~500 cells): single area counts
Method: In a study of the prophylactic effects of Compound 96 on Human Immunodeficiency Virus (HIV), virus stock solutions were inactivated by treatment with Compound 96. Stock solutions of viral types NL-HX-ADA having a p24 concentration of 4.1 μg/ml and NL-HX (P122) having a p24 concentration of 3.8 μg/ml were used for the study, along with a stock solution of Compound 96 having a concentration of 20 mg/ml in RPMI media.
Concentrated stock solution of viruses were treated for 1 hr with equal volume of medium containing the drug at the following concentrations:
After the 1 hr treatment period, the virus-drug solutions were diluted 1:1,000 with complete medium, and then mixed with an equal volume of Peripheral Blood Mononucleocyte (PBMC) cells, for a final dilution of virus and drug of 1:4,000.
The infected cultures were then incubated without any washing or other changes in media for 4 days (for the M-tropic NL-HX-ADA type) and 8 days (for the T-tropic NL-HX type). The cultures were then assayed for infection using standard fluorescent focus assays to quantitate infected cells.

adenovirus = test: Inhibition of adenovirus infection in A549 cells in vitro; format: cell-based
Text: Compound 96 inhibited adenovirus infection 67% in A549 cells in vitro.

[3] = test system: human papillomavirus type 11 (HPV-11); test: HPV-11 pre-treated with CTC 96, subcutaneous human foreskin xenograft infection model in SCID mouse, graft size; format: in vivo; details: for cGMD of the Grafts, Lower Quartile / cGMD of the Grafts, Median / cGMD of the Grafts, Upper Quartile: 12 weeks; for Composite Geometric Mean Diameters (cGMD) of the Grafts, Means: grafts at 12 weeks, replicates 1, 3, 4
Method: The activity of CTC 96 on human papillomavirus type 11 (HPV-11) prior to infection was tested by using a subcutaneous human xenograft infection model in the severe combined immunodeficiency (SCID) mouse.
Three different concentrations, 1%, 0.2% and 0.05%, of CTC 96 and a control (normal saline) were evaluated in HPV-11-infected internal human xenograft in the SCID mouse. The viral suspension was exposed for one hour with one of the four CTC 96 concentrations before being used to infect the human foreskin grafts.
Each experiment was done in quadruplicate. Twelve mice were used in each replicate. For each replicate, the four treatment groups were made of 3 mice (3 animals per cage). Each mouse received under the skin of each flank one HPV-11-infected foreskin fragment. Two foreskin donors were used, one for the fragments implanted under the left flank and a different one for the fragments implanted under the right flank. The HPV-11-infected grafts were left to grow for 12 weeks, while the mice weights were monitored every other week. At the end of the 12 weeks, the animals were sacrificed and the grafts recovered, measured and processed.
CTC 96 was applied to the virus directly, prior to infection. Just prior to exposure of the virus to CTC 96, 750 μl of normal saline was added to a vial containing 15 mg of dry CTC 96. The resulting solution contained 2% of CTC 96.
CTC 96 was incubated for 1 hour at 37° C. with the viral suspension, which was then used to infect the human foreskin fragments.
Neonatal foreskins from routine circumcision were collected at the nursery of a local hospital and placed in transport medium (Minimum Essential Medium, penicillin 25,000 U/ml, streptomycin 25 mg/mL), In a Petri dish, the foreskin's occluded side was removed using a scalpel, leaving the exposed skin prepared as a split-thickness graft. The foreskin was punched out using a 3 mm biopsy punch. One fragment was fixed in buffered formalin to serve as control in the histologic and immunocytochemical analyses. 3-4 fragments were snap frozen in liquid nitrogen, to serve as controls in the RT-PCR assay. The other fragments were split equally into four groups. Each group of fragments was dispensed in one of the vials containing 500 μl of pretreated viral suspension.
Two foreskin donors collected within 24 hours of the procedure, were used in each replicate experiment. Each viral suspension received the foreskin fragments of both foreskin donors. To recognize the foreskin donors, in each experiment we used […]. The fragments were vortexed in the suspension and left to incubate for 60 minutes at 37° C. before being grafted.
For the grafting, the mouse was anesthetized in an anesthesia chamber with 5% halothane to 2 liters of oxygen, until no corneal or pedal reflexes could be elicited. The animal was removed from the chamber, and the halothane adjusted to 2-2.5% to 1 liter of oxygen for continued administration via nose cone for the duration of the surgical procedure. The animals ears were notched for identification. The back skin was prepped with a povidone iodine swab. A 1 cm vertical incision of the skin was made on the flank with scissors. Through that incision, the subcutis was bluntly dissected with closed scissors caudad to the wound. One foreskin fragment from the […] donor was inserted in the caudad pocket, epidermis facing the mouse's skin, mucosal side in contact with the musculo-fascial plane (panniculus camosus) of the mouse. The incision was closed with two metal clips. The other side was grafted in the same manner with one foreskin fragment from the […] donor.
The animals were otherwise sacrificed by cervical dislocation 12 weeks after graft implantation. Length, width, and height of the graft were measured and recorded. The graft were then removed and split in at least two parts. One part was fixed in buffered formalin. […]

[4] = virus treated 1 hr at 0.625 mg/ml
[5] = virus treated 1 hr at 1.25 mg/ml
[6] = virus treated 1 hr at 2.5 mg/ml

## CC1=CC(C)=[N+]2CC[N+]3=C(C)C=C(C)[O][Co-4]23([n+]2cc[nH]c2C)([n+]2cc[nH]c2C)[O]1.[Br-] [Compound 96]
[1]; Batch A: [CTC96] during incubation with virus 5 mg/ml (initial 10 mg/ml; after final dilution 2.5 ng/ml)
  % Neutralization: 100%
[1]; Batch B: [CTC96] during incubation with virus 2.5 mg/ml (initial 5 mg/ml; after final dilution 1.25 ng/ml)
  % Neutralization: 100%
[1]; Batch C: [CTC96] during incubation with virus 1.25 mg/ml (initial 2.5 mg/ml; after final dilution 0.61 ng/ml)
  % Neutralization: 100%
[1]; Batch D: [CTC96] during incubation with virus 0.625 mg/ml (initial 1.25 mg/ml; after final dilution 0.31 ng/ml)
  % Neutralization: 100%
[1]; Batch E: [CTC96] during incubation with virus 0.312 mg/ml (initial 0.6 mg/ml; after final dilution 0.156 ng/ml)
  % Neutralization: 83%
[1]; Batch F: [CTC96] during incubation with virus 0.156 mg/ml (initial 0.3 mg/ml; after final dilution 0.078 ng/ml)
  % Neutralization: 63%
[1]; Batch G: [CTC96] during incubation with virus 0.078 mg/ml (initial 0.156 mg/ml; after final dilution 0.039 ng/ml)
  % Neutralization: 55%
[1]; Batch H: [CTC96] during incubation with virus 0.039 mg/ml (initial 0.078 mg/ml; after final dilution 0.019 ng/ml)
  % Neutralization: 18%
[1]; Batch I: [CTC96] during incubation with virus 0.019 mg/ml (initial 0.039 mg/ml; after final dilution 0.009 ng/ml)
  % Neutralization: 1%
[1]; Batch J: [CTC96] during incubation with virus 0.009 mg/ml (initial 0.019 mg/ml; after final dilution 0.0045 µg/ml)
  % Neutralization: 2%
[1]; Batch K: [CTC96] during incubation with virus 0.0045 mg/ml (initial 0.009 mg/ml; after final dilution 0.0023 ng/ml)
  % Neutralization: 1%
[2]; any drug-treated sample vs control infection (800-1200 infected cells per well)
  reduction in infectivity: ≥ 1,000 fold
[2]; any of the drug-treated samples
  infected cells when the entire well was scanned: No infected cells were detected
[2]; even at the lowest concentration of drug tested (0.625 mg/ml), 1 hr treatment
  inactivation of treated virus: completely inactivated
[2]; [4]
  Average # infected cells/area: 0 cells/area
  # infected cells/area (~500 cells): 0 cells/area
[2]; [5]
  Average # infected cells/area: 0 cells/area
  # infected cells/area (~500 cells): 0 cells/area
[2]; [6]
  Average # infected cells/area: 0 cells/area
  # infected cells/area (~500 cells): 0 cells/area
[2]; virus treated 1 hr at 5 mg/ml
  Average # infected cells/area: 0 cells/area
  # infected cells/area (~500 cells): 0 cells/area
[2]; virus treated 1 hr at 10 mg/ml
  Average # infected cells/area: 0 cells/area
  # infected cells/area (~500 cells): 0 cells/area
adenovirus
  inhibited adenovirus infection: 67%
[3]; 0.05% concentration
  effect on graft size: effective
[3]; CTC 96 0.05%
  cGMD of the Grafts, Lower Quartile: 1.94 mm
  cGMD of the Grafts, Median: 2.01 mm
  cGMD of the Grafts, Upper Quartile: 2.13 mm
[3]; CTC 96 0.2%
  cGMD of the Grafts, Lower Quartile: 1.70 mm
  cGMD of the Grafts, Median: 1.88 mm
  cGMD of the Grafts, Upper Quartile: 2.05 mm
[3]; CTC 96 1%
  cGMD of the Grafts, Lower Quartile: 1.82 mm
  cGMD of the Grafts, Median: 1.94 mm
  cGMD of the Grafts, Upper Quartile: 2.08 mm
[3]; regardless of the concentration used
  HPV-11-induced growth of the grafts: limited the HPV-11-inducted growth of the grafts
[3]; virus exposed 1 hour to CTC 96 0.05%
  Composite Geometric Mean Diameters (cGMD) of the Grafts, Means: 2.02 mm
[3]; virus exposed 1 hour to CTC 96 0.2%
  Composite Geometric Mean Diameters (cGMD) of the Grafts, Means: 1.86 mm
[3]; virus exposed 1 hour to CTC 96 1%
  Composite Geometric Mean Diameters (cGMD) of the Grafts, Means: 1.95 mm
